Patent US20140107062A1, “COMPOSITIONS AND METHODS FOR TREATING OR PREVENTING DISEASES OF BODY PASSAGEWAYS” (Aravasc Inc., priority 2007, published 2014)
In brackets after ≈: the same amount, converted by molar mass. Several values for one entry are separate records, joined by “and”; a condition that tells them apart may be missing. Equal values may be shown once. Read-outs that look alike come from different tables or passages of the source.

Key:
[1] = Rat in situ intra-tracheal infusion of THX-polymer formulation; format: in vivo; conditions: 8 mg/kg
Procedure: A pilot study of in situ intra-tracheal infusion was performed to estimate tracheal and lung tissue levels after in situ intra-tracheal infusion of THX-polymer formulation.
Two rats (immediately after termination) were intra-tracheally infused over 30 mins with a THX-polymer formulation. The dose was 8 mg/kg and volume was 200 μl. After infusion these were wrapped for 2 hours in a warm heating pad. Tracheo-bronchial and lung tissue were harvested after wiping the lumen area of the tracheo-bronchial lumen with a tissue and spatula (to take off any adsorbed drug) at the end of 2 hours. Samples were frozen at −80 C until processed and analyzed by LC-MS. Sample extraction was conducted at AraVasc Inc. The processed samples were analyzed at Alta Analytical laboratories by LC-MS.
(§1) The equipment used was a SCIEX PE 3000.
(§2) The supernatant extract was subject to LCMS analysis.

[2] = tested on: liver and lung cancer; conditions: preliminary reports, clinical trials; cited from earlier work
[3] = Solubility of analytes and polymer in solvents, dissolution media and water; format: physicochemical
[4] = administered systemically; cited from earlier work
[5] = in vivo; conditions: rat
Text: The animals were anesthetized while dosing. […] Samples were frozen until processed for LC-MS analysis.
as §1, §2

[6] = Drug distribution 28-day PK study in naïve mice implanted with ETDS; format: in vivo; conditions: for Distribution of drugs from the implants in vivo: subcutaneous ETDS implants in mice
Procedure: An in vivo 28-day PK and drug distribution studies was conducted to understand drug distribution and the release profile/duration of drug-released from the different ETDS.
Nine mice were subcutaneously implanted with the same ETDS as implanted in the efficacy study. […] […] Three animals were terminated at each of these time points. Drug distribution in the plasma and skin tissue was analyzed by LC-MS. The preclinical stents were explanted and assayed for residual drug.

[7] = Drug levels in tumor-bearing mice at efficacy study termination; format: in vivo; conditions: for Drug Exposure, Tumor Tissue / Drug Exposure, Plasma: efficacy study; for Drug Exposure, Tumor Tissue: day 28-47; for Drug Exposure, Plasma: day 28-47, n = 8; for Explanted ETDS (Residual - efficacy): n = 3, ETDS 125 ± 25 ug total drug (1:1)
Procedure: The fast release mini-ETDS ensured the highest dose delivery. Coated or uncoated fast release preclinical ETDS were implanted in contact with tumor (300 mm^3), 14 days after inoculation of human esophageal-gastric cancer line NUGC4-GFP into nude mice. Tumor growth inhibition was evaluated over 47 day period post-implantation (FIG. 24). […] The projected in vivo dose/day based on an assumption of constant release after the initial ‘burst-effect’, is about 0.45 mg/kg/day.
A drug-dye distribution study was conducted in naïve mice. Plasma, skin tissue at implant site and skin tissue at contralateral site was sampled at defined intervals ranging from 2 hours-28 days. Similarly, plasma and tumor tissue was sampled at efficacy study termination at either 28 or […] days post implantation.
Drug-dye exposure levels in each of these biological samples was quantitated by LC-MS to obtain correlations between efficacious levels of exposure and release profile in naïve mice.
The LCMS analysis was conducted using validated bioanalytical methods discussed below except for HCFU. […] Samples were processed and analyzed immediately. Values may be underestimated.

[8] = Stability of ICG and HCFU (pH, dissolution media, ETDS product); format: physicochemical
Text: A suboptimal pH (4) for the dissomedia was chosen to preserve both and simultaneously quantitate them as they eluted.
A suboptimal but workable pH 4 was chosen to evaluate the release profile.

[9] = cited from earlier work
[10] = under physiological conditions and under acidic conditions (pH<4); cited from earlier work
[11] = 200 μl, infused over 30 mins, harvested at 2 hours, individual rats
[12] = DMF, organic solvent or mixture, read-out: Solubility
[13] = DMSO, organic solvent or mixture, read-out: Solubility
[14] = THF, organic solvent or mixture, read-out: Solubility
[15] = acetonitrile, organic solvent or mixture, read-out: Solubility
[16] = dissolution media, read-out: Solubility
[17] = Day 4, FR ETDS, individual mice
[18] = Day 4, fast release (FR) ETDS, individual mice
[19] = Day 7, FR ETDS, individual mice
[20] = Day 14, FR ETDS, individual mice
[21] = Day 28, FR ETDS, individual mice
[22] = mouse, plasma, subcutaneous, Day 28, FR ETDS, individual mice, read-out: Plasma Conc.
[23] = mouse, skin tissue at implantation site, subcutaneous, Day 14, FR ETDS, individual mice, read-out: Tissue Conc. site of implant
[24] = mouse, skin tissue at implantation site, subcutaneous, Day 28, FR ETDS, individual mice, read-out: Tissue Conc. site of implant

Row | SMILES | solubility [3, 12] | solubility [3, 13] | solubility [3, 14] | solubility [3, 15] | solubility [3, 16] | solubility ([3]; water, read-out: Solubility) | pulmonary toxicities [4] | Tissue Conc. site of implant [6, 17] | Plasma Conc. [6, 18] | Plasma Conc. [6, 19] | Tissue Conc. site of implant [6, 19] | Plasma Conc. [6, 20] | Tissue Conc. site of implant [6, 20] | Plasma Conc. [6, 21] | Tissue Conc. site of implant [6, 21] | concentration at 28 day [6, 22] | concentration at 14 day [6, 23] | Distribution of drugs from the implants in vivo [6] | Explanted ETDS (Residual - efficacy) [7] | concentration at 28 day [6, 24] | further results
1 | O=C1CCC(N2C(=O)c3ccccc3C2=O)C(=O)N1 (racemic) [THX, 2-(2,6-dioxo-3-piperidinyl)-1H-isoindole-1,3(2H)-dione] | 75.5 mg/mL (≈ 292 mM) | 56 mg/mL (≈ 217 mM) | 3.34 mg/mL (≈ 12.9 mM) | 0.79 mg/mL (≈ 3.06 mM) | 3.34 mg/mL (≈ 12.9 mM) | 1.5 mg/mL (≈ 5.81 mM) | No pulmonary toxicities | 387 ng/g and 338 ng/g and 6410 ng/g | 0.95 ng/mL and 3.26 ng/mL and 0.00 ng/mL | 7.27 ng/mL and 9.27 ng/mL | 22.5 ng/g and 66.5 ng/g and 18.4 ng/g | 2.26 ng/mL and 7.55 ng/mL | 15.9 ng/g and 16.8 ng/g | 13.7 ng/mL and 7.79 ng/mL | 20.2 ng/g and 34.0 ng/g and 15.8 ng/g | 9.03 ng/mL | 30.9 ng/g |  |  |  | Tissue Levels Lung [1, 11]: 0.75 μg/100 mg and 0.58 μg/100 mg; Tissue Levels Trachea [1, 11]: 211.21 μg/100 mg and 290.36 μg/100 mg; THX levels in tracheo-bronchial and lung tissue ([1]; in situ infusion (0.5 hr)): High levels; concentration at 2 h ([1]; rat, lung, other: in situ intra-tracheal infusion, 200 μl, infused over 30 mins, harvested at 2 hours, individual rats, read-out: Tissue Levels Lung): 5800 ng/g; disease control rates [2]: 8%-57%; response rates [2]: 4%-10%; concentration at 20 min ([5]; 4 mg/Kg): 190 ng/mL; concentration at 40 min ([5]; 4 mg/Kg): 440 ng/mL; THX levels in lung tissue ([5]; 12 mg/kg): High levels; THX levels in plasma ([5]; 12 mg/kg): low levels; concentration at 7 day ([6]; mouse, plasma, subcutaneous, Day 7, FR ETDS, individual mice, read-out: Plasma Conc.): 5.42 ng/mL
2 | CCCCCOC(=O)Nc1nc(=O)n([C@@H]2O[C@H](C)[C@@H](O)[C@H]2O)cc1F [CPX, Capecitabine] | > 50 mg/mL | > 50 mg/mL | > 50 mg/mL | > 0.4 mg/mL | > 10 mg/mL | > 10 mg/mL |  |  |  |  |  |  |  |  |  |  |  |  |  |  | 
3 | O=c1[nH]cc(F)c(=O)[nH]1 [FLX, 5-fluorouracil] | 45.8 mg/mL (≈ 352 mM) | 59 mg/mL (≈ 454 mM) | 42.1 mg/mL (≈ 324 mM) | 1.81 mg/mL (≈ 13.9 mM) | 42.1 mg/mL (≈ 324 mM) | > 20 mg/mL |  |  |  |  |  |  |  |  |  |  |  | High levels |  |  | 
4 | CCCCCCNC(=O)n1cc(F)c(=O)[nH]c1=O [HCFU, Carmofur] | > 50 mg/mL | > 50 mg/mL | > 50 mg/mL | > 0.4 mg/mL | 0.05 to 0.06 mg/mL (≈ 0.194 to 0.233 mM) | 0.02 to 0.03 mg/mL (≈ 0.0777 to 0.117 mM) |  |  |  |  |  |  |  |  |  |  |  |  | 2.1 µg |  | Drug Exposure, Tumor Tissue ([7]; HCFU): 54.1 ng/mL; Drug Exposure, Plasma ([7]; HCFU, tumor-bearing mice): 59 ng/mL and 58.97 ng/mL; Tumor tissue exposure at steady state, average ([7]; HCFU, termination day 28-47): 54 ng/gm; Stability in the dissolution media ([8]; pH>3): unstable; Stability ([8]; pH>4): not stable; Stability ([8]; physiological pH): limited stability; concentration at 28 day ([6]; mouse, plasma, subcutaneous, HCFU, naïve mice, day 28, n = 3, read-out: Drug Exposure, Plasma): 48.2 ng/mL; concentration at 28 day ([6]; mouse, subcutaneous tissue, subcutaneous, HCFU, naïve mice, day 28, n = 3, read-out: Drug Exposure, Subcutaneous Tissue): 43.3 ng/mL
5 | CC1(C)C(/C=C/C=C/C=C/C=C2\N(CCCCS(=O)(=O)O)c3ccc4ccccc4c3C2(C)C)=[N+](CCCCS(=O)(=O)[O-])c2ccc3ccccc3c21 [ICG, Indocyanine green] |  |  |  |  |  |  |  | 15.3 ng/g and 32.4 ng/g and 20.9 ng/g | 2.39 ng/mL and 3.76 ng/mL | 3.23 ng/mL and 0 ng/mL and 2.26 ng/mL | 13.2 ng/g and 12.4 ng/g and 35.9 ng/g | 2.23 ng/mL and 0 ng/mL (2×) | 13.1 ng/g and 14 ng/g | 2.24 ng/mL and 2.26 ng/mL | 11.8 ng/g and 11.9 ng/g | 2.39 ng/mL | 12.2 ng/g | remained confined to the site of implantation |  | 12.1 ng/g | in-vivo protein binding [9]: about 95%; half life t1/2 [10]: < 2 min; Stability ([8]; acidic pH<4): not stable; Stability in the dissolution media ([8]; pH<3): unstable; concentration at 4 day ([6]; mouse, plasma, subcutaneous, Day 4, fast release (FR) ETDS, individual mice, read-out: Plasma Conc.): 3.89 ng/mL
6 | CC(=O)O[C@H]1C(=O)[C@@]2(C)[C@H]([C@H](OC(=O)c3ccccc3)[C@]3(O)C[C@H](OC(=O)[C@H](O)[C@@H](NC(=O)c4ccccc4)c4ccccc4)C(C)=C1C3(C)C)[C@]1(OC(C)=O)CO[C@@H]1C[C@@H]2O [PTX, Paclitaxel] | 154 mg/mL (≈ 181 mM) | 27.2 mg/mL (≈ 31.9 mM) |  | 44.3 mg/mL (≈ 51.9 mM) | 0.05 to 0.06 mg/mL (≈ 0.0586 to 0.0703 mM) | > 20 mg/mL | No pulmonary toxicities | 18000 ng/g and 6270 ng/g and 6990 ng/g | BLOQ | BLOQ | 22000 ng/g and 10300 ng/g and 47000 ng/g | BLOQ | 16500 ng/g and 10400 ng/g and 21600 ng/g | BLOQ | 12800 ng/g and 10600 ng/g |  |  |  | 15.4 µg | 18900 ng/g | solubility ([3]; THF): 41.7 mg/mL (≈ 48.8 mM); Drug Exposure, Tumor Tissue ([7]; PTX): 9,668 ng/gm; Drug Exposure, Plasma ([7]; PTX, tumor-bearing mice): 1.53 ng/gm; Average levels detected in plasma ([7]; PTX, tumor-bearing mice): 1.5 ng/mL; Explanted ETDS Conc. (residual drug) ([6]; Day 14 explanted FR ETDS): 12.30 µg and 14.82 µg and 15.13 µg; Drug Exposure, Plasma ([6]; PTX, naïve mice, day 28, n = 3): BLOQ; concentration at 28 day ([6]; mouse, subcutaneous tissue, subcutaneous, PTX, naïve mice, day 28, n = 3, read-out: Drug Exposure, Subcutaneous Tissue): 12100 ng/g
